Consider six molecules from patent US20110172230A1, “UREA COMPOUND OR SALT THEREOF” (priority 2006, published 2011).

pIC50: −log10 of the molar value. Counter-ions that a name gives are not always drawn.

One test has as its target T1, FAAH (Rattus norvegicus, UniProt P97612).
T1 construct: the rat brain homogenate was diluted so that its protein concentration could be 60 μg/ml, thereby preparing an enzyme solution; from tissue; host or cells: rat cerebrum (SD-line male rat, 10 weeks) homogenate, 15000 x g pellet
T1 sequence (P97612 1-579): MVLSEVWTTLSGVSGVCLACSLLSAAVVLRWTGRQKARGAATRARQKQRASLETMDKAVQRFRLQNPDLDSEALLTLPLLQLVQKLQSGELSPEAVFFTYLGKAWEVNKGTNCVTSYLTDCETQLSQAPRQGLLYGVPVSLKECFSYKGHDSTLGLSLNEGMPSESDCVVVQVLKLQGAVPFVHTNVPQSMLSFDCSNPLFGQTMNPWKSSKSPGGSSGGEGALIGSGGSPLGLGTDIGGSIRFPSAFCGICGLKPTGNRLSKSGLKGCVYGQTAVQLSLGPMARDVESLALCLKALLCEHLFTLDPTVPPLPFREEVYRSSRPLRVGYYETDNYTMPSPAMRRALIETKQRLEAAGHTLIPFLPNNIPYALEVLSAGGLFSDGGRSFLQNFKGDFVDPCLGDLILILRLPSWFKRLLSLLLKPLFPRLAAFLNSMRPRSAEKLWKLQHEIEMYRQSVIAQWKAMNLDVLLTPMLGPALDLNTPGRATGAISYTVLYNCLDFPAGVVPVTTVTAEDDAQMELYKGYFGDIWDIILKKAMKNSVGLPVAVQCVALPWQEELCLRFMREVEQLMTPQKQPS
Description: Screening for an FAAH activity inhibiting substance using a rat brain homogenate (IC50). It counts as biochemical. As to conditions: radiolabeled anandamide substrate, 1 hour. The procedure: Screening for an FAAH Activity Inhibiting Substance Using a Rat Brain Homogenate
(1) Preparation of a Rat Brain Homogenate
The head of a 10-week-old SD-line male rat (Japan SLC., Inc.) was cut off, and its cerebrum was taken out and weighed. Five times by volume its weight of an ice-cooled buffer (50 mM Tris-HCl (pH 7.4), 0.32 M sucrose) was added, and this was homogenized with a homogenizer in ice to give a uniform suspension. This was centrifuged (1500×g, 4° C., 15 minutes), and the supernatant was again centrifuged (15000×g, 4° C., 20 minutes) to obtain a precipitate. Further, using an ultrasonic wave generator (UR-20P, TOMY SEIKO CO., LTD.), this was ultrasonicated (power dial 4) for 5 seconds. The protein concentration of the resulting homogenate was measured according to a dye-coupling method (protein assay CBB solution, NACALAI TESQUE, INC.). Using a buffer (50 mM Tris-HCl (pH 8.0), 1 mM EDTA, 0.1 mg/ml BSA, 100 mM NaCl), the rat brain homogenate was diluted so that its protein concentration could be 60 μg/ml, thereby preparing an enzyme solution.
(2) Screening for an FAAH Activity Inhibiting Substance
A substrate solution was prepared, comprising 2 μCi/ml radiolabeled anandamide (Anandamide [ethanolamine 1-^3H] (American Radiolabeled Chemical)), 8 μM anandamide (Funakoshi), 50 mM Tris-HCl (pH 8.0), 1 mM EDTA, 0.1 mg/ml BSA and 100 mM NaCl. Test substance solutions were prepared, dissolved in DMSO to have a concentration from 1 nM to 100 μM. 50 μl of the substrate solution and 1 μl of the test substance solution were added to 50 μl of the enzyme solution, and left for 1 hour. As a control, DMSO was added in place of the test substance solution. To this, added was 200 μl of a 1:1 (ratio by volume) solution of chloroform/methanol, followed by vortexing. This was centrifuged (15000 rpm, 2 minutes), whereby the decomposed product ethanolamine (ethanolamine 1-^3H) was separated in the upper layer (water/methanol layer) and the unreacted radiolabeled anandamide (Anandamide [ethanolamine 1-^3H]) was in the lower layer (chloroform layer). 30 μl of the upper layer was transferred into a 96-well organic solvent-resistant white microplate (PicoPlate-96; Perkin Elmer, Inc.), 150 μl of Microscint-20 (Perkin Elmer, Inc.) was added thereto, and this was measured with a microplate scintillation counter (TopCount™; Beckman Coulter, Inc.). As compared with the control, the substance that gave a decreased value was selected as an FAAH activity-inhibiting substance.
(3) Measurement of the IC50 Value of the FAAH Activity Inhibiting Substance
The compound was dissolved in DMSO to have a varying concentration from 1 nM to 100 μM to prepare test substance solutions. According to the method mentioned above, the compound was analyzed for its influence on FAAH activity. As a control, DMSO was used. A measured value of a case where a buffer (50 mM Tris-HCl (pH 8.0), 1 mM EDTA, 0.1 mg/ml BSA, 100 mM NaCl) was reacted in place of the enzyme solution was subtracted from every measured value. Based on the measured value of the control, 100%, the IC50 value of the test substance was determined. Furthermore, Ex represents the Example No. as denoted below.

Test [1] concerns cyclophosphamide (CPA)-induced urinary frequency. Description: Effect of compound on cyclophosphamide (CPA)-induced urinary frequency in a rat (effective bladder capacity). The test is classed as in vivo. As to conditions: CPA (100 mg/kg i.p.)-treated Wistar female rats, p.o.; for effective dose in oral administration: effective bladder capacity over 1 hour. Here is the method:
Effect of Compound on Cyclophosphamide (CPA)-Induced Urinary Frequency in a Rat
Compounds were tested for their bladder irritation-relieving effect, using pathologic models. It is known that systemic administration of cyclophosphamide (CPA) converts the compound into its metabolite, acrolein, and, as existing in urine, this injures the bladder mucosa. In rats, CPA administration induces bladder pain or urinary frequency accompanied by hemorrhagic cystitis, and therefore using such rats, it is possible to evaluate the potency of drug for these symptoms. In this experiment, used were 9-week-old Wistar female rats (Charles River). CPA (100 mg/kg) was intraperitoneally administered to the rats, and after 2 days, the rats were tested. A test compound was orally administered (p.o.) to the rats; and after 15 minutes, distilled water (30 ml/kg) was forcedly orally administered thereto. The rats were put in a metabolic cage, and the weight of their urine was continuously measured for 1 hour. The overall urine amount was divided by the overall urination frequency, and the effective bladder capacity was thus calculated. […] In oral administration, the effective doses of compounds of Examples 155 and 210 were 10 mg/kg and 3 mg/kg, respectively.

The molecule `O=C(Nc1cccnc1)N1CCN(Cc2ccnc(OCCC3CCCCC3)c2)CC1` [Example 30, 4-{[2-(2-cyclohexylethoxy)pyridin-4-yl]methyl}-N-pyridin-3-ylpiperazine-1-carboxamide trihydrochloride] gave a pIC50 against FAAH of 7.52.

Molecule `O=C(Nc1cnccn1)N1CCN(C(=O)c2ccnc(OCCC3CCCCC3)c2)CC1` [Example 38, 4-[2-(2-cyclohexylethoxy)isonicotinoyl]-N-pyrazin-2-ylpiperazine-1-carboxamide] gave a pIC50 on FAAH of 8.30.

As to `O=C(Nc1ncccn1)N1CCN(C(=O)c2cccc(OCCC3CCCCC3)c2)CC1` [Example 155], the pIC50 against FAAH was 7.60. In test [1], the “effect on effective bladder capacity / urinary frequency” value was “increased the reduced effective bladder capacity, and relieved the condition of urinary frequency”; the “effective dose in oral administration” value is recorded as 10 mg/kg.

For the molecule `O=C(Nc1cnccn1)N1CCN(C(=O)c2cccc(OCCC3CCCCC3)c2)CC1` [Example 210], the pIC50 at FAAH was 8.48. For the same molecule, in test [1], the “effect on effective bladder capacity / urinary frequency” value was “increased the reduced effective bladder capacity, and relieved the condition of urinary frequency”; the “effective dose in oral administration” value was found to be 3 mg/kg.

The molecule `CN(CCC1CCCCC1)c1ccc(C(=O)N2CCN(C(=O)Nc3cccnc3)CC2)cc1` [Example 334] had a pIC50 on FAAH of 7.38.

Molecule `COCC(=O)NC(=O)N1CCN(Cc2cccc(OCCC3CCCCC3)c2)CC1` [Example 439] had a pIC50 at FAAH of 7.60.
